Patent US5202319A, “Substituted 3-amino-2,3,4,5-tetrahydro-1-aryloxy-3-benzazepines” (Hoechst-Roussel Pharmaceuticals Inc., priority 1991, dated 1993)
Structures can show the parent of a compound that is named as a salt.

Assays:
serotonin (5HT) uptake = experiment: 3H-Serotonin Uptake in Rat Whole Brain and Hypothalamic Synaptosomes; format: biochemical; settings: 50 nM 3H-5HT, 37° C., 5 minutes, log-probit analysis, read-out: Inhibition of ^3 H-serotonin Uptake IC50
Method: A. Animals: Male CR Wistar rats (100-125 g).
3. […] This is used to dilute the specific activity of radiolabeled 5HT.
The final desired concentration of ^3 H-5HT in the assay is 50 nM. The dilution factor is 0.8.
Male Wistar rats are decapitated and the brain rapidly removed. […] Homogenization should be done with 4-5 up and down strokes at medium speeds to minimize synaptosome lysis. […] The supernatant (S1) is decanted and is used for uptake experiments.
Tubes are incubated at 37° C. under a 95% O2 /5% CO2 atmosphere for 5 minutes. For each assay, 3 tubes are incubated with 20 μl of vehicle at 0° C. in an ice bath. After incubation all tubes are immediately centrifuged at 4000 g for 10 minutes. The supernatant fluid is aspirated and the pellets dissolved by adding 1 ml of solubilizer (Triton X-100+50% EtOH, 1:4 v/v). […] Active uptake is the difference between cpm at 37° C. and 0° C. […] IC50 values are derived from log-probit analysis.

5HT uptake = settings: cited from earlier work
[^3 H]-5HT transport = CNS tissue; cited from earlier work
[1] = in vivo; cited from earlier work
5HT uptake sites = settings: in vitro; cited from earlier work

`NN1CCc2ccccc2C(Oc2ccc(C(F)(F)F)cc2)C1` (stereo not drawn) [3-Amino-2,3,4,5-tetrahydro-1-(4-trifluoromethylphenoxy)-3-benzazepine maleate] showed an IC50 (serotonin (5HT) uptake) of 9.36 µM.

For `CN(C)C/C=C(/c1ccc(Br)cc1)c1cccnc1` [zimelidine], the “effects on 5HT uptake” value (5HT uptake) is listed as “fairly selective effects on 5HT uptake”.

In the case of `C[C@@H]1O[C@@H](O[C@H]2C[C@@H](O)[C@]3(CO)[C@H]4[C@H](O)C[C@]5(C)[C@@H](C6=CC(=O)OC6)CC[C@]5(O)[C@@H]4CC[C@]3(O)C2)[C@H](O)[C@H](O)[C@H]1O` [ouabain], the “inhibition of [^3 H]-5HT transport” value ([^3 H]-5HT transport) is given as “inhibited”.

For `O=c1n(CCCN2CCN(c3cccc(Cl)c3)CC2)nc2ccccn12` [Trazodone], the clinical effectiveness [1] is listed as “clinically effective antidepressants”.

In the case of `CN(C)CCCN1c2ccccc2CCc2ccccc21` [[^3 H]-imipramine], the “[^3 H]-imipramine binding” value (5HT uptake sites) is listed as “labels 5HT uptake sites”.

`COc1cc2c(cc1OC)C(Oc1ccccc1)CN(N)CC2` (stereo not drawn) [3-Amino-7,8-dimethoxy-1-phenoxy-2,3,4,5-tetrahydro-3-benzazepine maleate] showed an IC50 (serotonin (5HT) uptake) of 2.13 µM.
